Data from patent US20250034125A1, “COMPOUNDS AND USES THEREOF” (JANSSEN PHARMACEUTICA NV, priority 2019, published 2025).
Where two headings read alike, the source gives them in different places.

Tests used:
SCD1 = biological target: T1, SCD1 (Homo sapiens, UniProt O00767); assay: Growth inhibition of yeast (ole1Δ) expressing human SCD1 as the sole desaturase; assay type: cell-based
T1 construct: host or cells: Saccharomyces cerevisiae ole1Δ strain (W303 pdr1Δ pdr3Δ background), plasmid pRS316, TDH3 promoter
T1 sequence (O00767 1-359): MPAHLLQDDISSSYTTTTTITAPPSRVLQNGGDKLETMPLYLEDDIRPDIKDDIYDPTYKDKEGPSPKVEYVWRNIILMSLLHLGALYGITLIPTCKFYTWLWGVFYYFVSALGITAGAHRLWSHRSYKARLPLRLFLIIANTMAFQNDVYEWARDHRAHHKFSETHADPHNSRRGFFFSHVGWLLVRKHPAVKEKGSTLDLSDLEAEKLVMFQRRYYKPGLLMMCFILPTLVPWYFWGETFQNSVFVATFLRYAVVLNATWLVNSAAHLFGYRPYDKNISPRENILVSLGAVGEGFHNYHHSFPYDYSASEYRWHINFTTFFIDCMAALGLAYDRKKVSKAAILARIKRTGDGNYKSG

SCD5 = biological target: T2, SCD5 (Homo sapiens, UniProt Q86SK9); assay: Growth inhibition of yeast (ole1Δ) expressing human SCD5 as the sole desaturase; assay type: cell-based
T2 construct: host or cells: Saccharomyces cerevisiae ole1Δ strain (W303 pdr1Δ pdr3Δ background), plasmid pRS316, TDH3 promoter
T2 sequence (Q86SK9 1-330): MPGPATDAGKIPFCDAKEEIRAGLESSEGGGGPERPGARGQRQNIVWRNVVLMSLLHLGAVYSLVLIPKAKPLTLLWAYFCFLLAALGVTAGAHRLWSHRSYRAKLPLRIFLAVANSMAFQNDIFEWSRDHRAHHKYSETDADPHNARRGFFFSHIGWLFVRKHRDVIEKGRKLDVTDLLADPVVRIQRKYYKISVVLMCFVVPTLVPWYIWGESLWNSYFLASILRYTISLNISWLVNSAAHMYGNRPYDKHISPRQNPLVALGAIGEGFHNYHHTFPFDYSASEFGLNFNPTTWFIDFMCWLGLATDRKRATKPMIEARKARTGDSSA

[1] = yeast strain with SCD1 plasmid, OD600 growth read at 40 h, read-out: SCD1 IC50
[2] = yeast strain with SCD5 plasmid, OD600 growth read at 40 h, read-out: SCD5 IC50

SMILES	IC50 (SCD1; [1]) [µM]	IC50 (SCD5; [2]) [µM]	IC50 (SCD1) [µM]	IC50 (SCD5) [µM]
Cn1nc(NC(=O)N2CCC(COc3ccccc3F)CC2)ccc1=O [Compound 99, 4-((2-fluorophenoxy)methyl)-N-(1-methyl-6-oxo-1,6-dihydropyridazin-3-yl)piperidine-1-carboxamide]	32.5	6.87		
Cn1nc(NC(=O)N2CCC(Cc3ccc(Cl)c(F)c3)CC2)ccc1=O [Compound 52, 4-(4-chloro-3-fluorobenzyl)-N-(1-methyl-6-oxo-1,6-dihydropyridazin-3-yl)piperidine-1-carboxamide]	2.4	0.33		
Cn1nc(-c2nnc(N3CCC(Cc4cccc(F)c4)CC3)o2)ccc1=O [Compound 119, 6-(5-(4-(3-fluorobenzyl)piperidin-1-yl)-1,3,4-oxadiazol-2-yl)-2-methylpyridazin-3(2H)-one]	> 45	0.16		
Cn1nc(NC(=O)N2CCC(COc3ccccc3C(F)(F)F)CC2)ccc1=O [Compound 100, N-(1-methyl-6-oxo-1,6-dihydropyridazin-3-yl)-4-((2-(trifluoromethyl)phenoxy)methyl)piperidine-1-carboxamide]	4.49	0.22		
Cn1cc(CC(=O)N2CCC(Oc3cccc(Cl)c3)CC2)ccc1=O [Compound 5, 5-(2-(4-(3-chlorophenoxy)piperidin-1-yl)-2-oxoethyl)-1-methylpyridin-2(1H)-one]	> 45	> 45		
Cn1nc(NC(=O)N2CCC(Cc3cc(F)c(F)c(F)c3)CC2)ccc1=O [Compound 62, N-(1-methyl-6-oxo-1,6-dihydropyridazin-3-yl)-4-(3,4,5-trifluorobenzyl)piperidine-1-carboxamide]	0.39	0.02		
Cn1nc(OC(=O)N2CCC(Oc3ccc(F)c(F)c3)CC2)ccc1=O [Compound 107]	> 45	7.93		
Cn1nc(NC(=O)N2CC=C(c3ccc(Cl)cc3)CCC2)ccc1=O [Compound 134, 5-(4-chlorophenyl)-N-(1-methyl-6-oxo-1,6-dihydropyridazin-3-yl)-2,3,4,7-tetrahydro-1H-azepine-1-carboxamide]	> 45	> 45		
Cn1nc(-c2cnc(N3CCC(Cc4cc(F)cc(F)c4)CC3)o2)ccc1=O [Compound 124, 6-(2-(4-(3,5-difluorobenzyl)piperidin-1-yl)oxazol-5-yl)-2-methylpyridazin-3(2H)-one]	26	0.14		
O=c1ccc(-c2noc(N3CCC(Cc4cc(F)cc(F)c4)CC3)n2)c[nH]1 [Compound 2]	> 45	> 45		
Cn1nc(NC(=O)N2CCC(Oc3cc(F)c(F)c(Cl)c3)CC2)ccc1=O [Compound 89, 4-(3-chloro-4,5-difluorophenoxy)-N-(1-methyl-6-oxo-1,6-dihydropyridazin-3-yl)piperidine-1-carboxamide]	0.26	0.06		
Cn1nc(NC(=O)N2CCC(Oc3ccc(F)cc3C(F)(F)F)CC2)ccc1=O [Compound 85]	0.08	0.05		
Cn1nc(NC(=O)N2CCC(Cc3cccc(Cl)c3)C2)ccc1=O (stereo not drawn) [Compound 25, 3-(3-chlorobenzyl)-N-(1-methyl-6-oxo-1,6-dihydropyridazin-3-yl)pyrrolidine-1-carboxamide]	2.75	5.29		
Cn1nc(NC(=O)N2CCC(Cc3cc(F)ccc3F)CC2)ccc1=O [Compound 53]	1.18	0.13		
Cn1nc(NC(=O)N2CCC(Cc3cc(Cl)cc(C#N)c3)CC2)ccc1=O [Compound 57, 4-(3-chloro-5-cyanobenzyl)-N-(1-methyl-6-oxo-1,6-dihydropyridazin-3-yl)piperidine-1-carboxamide]	9.2	2.6		
Cn1nc(NC(=O)N2CC(Cc3cccc(Cl)c3)C2)ccc1=O [Compound 22, 3-(3-chlorobenzyl)-N-(1-methyl-6-oxo-1,6-dihydropyridazin-3-yl)azetidine-1-carboxamide]	2.59	0.95		
Cn1cc(-c2nc(N3CCC(Oc4cccc(F)c4Cl)CC3)no2)ccc1=O [Compound 16, 5-(3-(4-(2-chloro-3-fluorophenoxy)piperidin-1-yl)-1,2,4-oxadiazol-5-yl)-1-methylpyridin-2(1H)-one]	0.35	0.59		
Cn1nc(-c2nc(N3CCC(Oc4cc(F)cc(F)c4)CC3)no2)ccc1=O [Compound 111, 6-(3-(4-(3,5-difluorophenoxy)piperidin-1-yl)-1,2,4-oxadiazol-5-yl)-2-methylpyridazin-3(2H)-one]	> 45	0.61		

SMILES	IC50 (SCD1; [1]) [µM]	IC50 (SCD5; [2]) [µM]	IC50 (SCD1) [µM]	IC50 (SCD5) [µM]
Cn1nc(NC(=O)N2CCC(F)(Cc3cccc(F)c3)CC2)ccc1=O [Compound 45, 4-fluoro-4-(3-fluorobenzyl)-N-(1-methyl-6-oxo-1,6-dihydropyridazin-3-yl)piperidine-1-carboxamide]	1.68	0.22		
Cn1nc(NC(=O)N2CCC(Cc3cc(F)c(F)cc3Cl)CC2)ccc1=O [Compound 61, 4-(2-chloro-4,5-difluorobenzyl)-N-(1-methyl-6-oxo-1,6-dihydropyridazin-3-yl)piperidine-1-carboxamide]	0.08	0.04		
Cn1nc(NC(=O)N2CCC(Nc3cc(F)cc(Cl)c3)CC2)ccc1=O [Compound 93, 4-((3-chloro-5-fluorophenyl)amino)-N-(1-methyl-6-oxo-1,6-dihydropyridazin-3-yl)piperidine-1-carboxamide]			> 45	15
Cn1nc(NC(=O)N2CCC(Oc3ccccc3)CC2)ccc1=O [Compound 67, N-(1-methyl-6-oxo-1,6-dihydropyridazin-3-yl)-4-phenoxypiperidine-1-carboxamide]	3.98	2.1		
Cn1nc(NC(=O)N2CCC(Oc3ccccc3C(F)(F)F)CC2)ccc1=O [Compound 75, N-(1-methyl-6-oxo-1,6-dihydropyridazin-3-yl)-4-(2-(trifluoromethyl)phenoxy) piperidine-1-carboxamide]	0.22	0.07		
Cn1nc(NC(=O)N2CCN(Cc3cccc(Cl)c3)CC2)ccc1=O [Compound 130, 4-(3-chlorobenzyl)-N-(1-methyl-6-oxo-1,6-dihydropyridazin-3-yl)piperazine-1-carboxamide]	> 45	15.8		
Cn1nc(NC(=O)N2CC[C@H](Oc3ccc(F)c(F)c3)C2)ccc1=O [Compound 29, (3S)-3-(3,4-difluorophenoxy)-N-(1-methyl-6-oxo-1,6-dihydropyridazin-3-yl)pyrrolidine-1-carboxamide]	0.42	2.8		
Cn1nc(NC(=O)N2CCC(Oc3ccc(Cl)cc3)CC2)ccc1=O [Compound 71]	13.3	4.96		
Cn1nc(NC(=O)N2CCC(Nc3cc(F)cc(F)c3)CC2)ccc1=O [Compound 94, 4-((3,5-difluorophenyl)amino)-N-(1-methyl-6-oxo-1,6-dihydropyridazin-3-yl)piperidine-1-carboxamide]			> 45	> 45
Cn1nc(NC(=O)N2CCC(Cc3cccc(F)c3)CC2)ccc1=O [Compound 41, 4-(3-fluorobenzyl)-N-(1-methyl-6-oxo-1,6-dihydropyridazin-3-yl)piperidine-1-carboxamide]	2.71	0.14		
Cn1cc(-c2nc(N3CCC(Cc4cc(F)cc(F)c4)CC3)no2)ccc1=O [Compound 17, 5-(3-(4-(3,5-difluorobenzyl)piperidin-1-yl)-1,2,4-oxadiazol-5-yl)-1-methylpyridin-2(1H)-one]	0.72	0.01		
O=C(Cc1ccc(=O)[nH]n1)N1CCC(Cc2cccc(Cl)c2)CC1 [Compound 34]	> 45	8.2		
Cn1nc(NC(=O)N2CCC(Cc3cc(F)cc(F)c3Cl)CC2)ccc1=O [Compound 64, 4-(2-chloro-3,5-difluorobenzyl)-N-(1-methyl-6-oxo-1,6-dihydropyridazin-3-yl)piperidine-1-carboxamide]	0.05	0.01		
Cn1nc(OC(=O)N2CCC(Cc3cc(F)cc(F)c3)CC2)ccc1=O [Compound 109]	> 45	4.85		
Cn1nc(NC(=O)N2CC[C@H](Oc3cc(F)cc(F)c3)C2)ccc1=O [Compound 30, (3S)-3-(3,5-difluorophenoxy)-N-(1-methyl-6-oxo-1,6-dihydropyridazin-3-yl)pyrrolidine-1-carboxamide]	0.33	2.9		
Cn1nc(NC(=O)N2CCC(=Cc3cc(F)cc(F)c3)CC2)ccc1=O [Compound 33, 4-(3,5-difluorobenzylidene)-N-(1-methyl-6-oxo-1,6-dihydropyridazin-3-yl)piperidine-1-carboxamide]	0.44	0.14		
Cc1cc(NC(=O)N2CCC(Cc3ccc(F)c(F)c3)CC2)nn(C)c1=O [Compound 129]	0.31	0.08		
Cn1cc(NC(=O)N2CCC(Cc3ccc(F)c(F)c3)CC2)ccc1=O [Compound 7]	> 45	5.01		
